Patent US20260273028A1, “PEROXIDASE COMPOSITIONS CONTAINING IMPROVED ENHANCING AGENTS” (FLEN HEALTH PHARMA NV, priority 2022, published 2026)

System: Candida albicans ATCC®10231™
Assay: MIC determination, broth microdilution, GOX+LPO with potentiator candidate
Assay type: cell-based
Conditions: C. albicans; enhancer 0.01%

CC[C@H](C)[C@H](N)C(=O)O [Isoleucine, isoleucine]
MIC: GOX+LPO enzyme solution needed to completely inhibit growth: 0.0000391 % (v/v) | increase in MIC compared to reference: 4 × | increase in MIC compared to the enhancing molecule guaiacol: 2 ×
